Results published in ChEMBL document CHEMBL4831491, “Non-carboxylic acid inhibitors of aldose reductase based on N-substituted thiazolidinedione derivatives” (Eur J Med Chem, 2021).
In brackets after ≈: the same amount, converted by molar mass.

Key:
Rattus norvegicus [1] = species on record: Rattus norvegicus; assay: Selectivity index, ratio of IC50 for ALR1 in Wistar rat kidney to IC50 for ALR2 in Wistar rat lens
[2] = Inhibition of ALR1 in Wistar rat kidney assessed as reduction in NADPH consumption using sodium D-glucuronate and NADPH as substrate preincubated for 1 mins followed by substrate addition and measured upto 4 mins by spectrophotometric analysis; type: tissue-based
[3] = Inhibition of ALR2 in Wistar rat lens assessed as reduction in NADPH consumption using D,L-glyceraldehyde and NADPH as substrate preincubated for 1 mins followed by substrate addition and measured upto 4 mins by spectrophotometric analysis; type: tissue-based
Rattus norvegicus [4] = species on record: Rattus norvegicus; assay: Inhibition of ALR2 in Wistar rat lens assessed as reduction in NADPH consumption at 10 uM using D,L-glyceraldehyde and NADPH as substrate preincubated for 1 mins followed by substrate addition and measured upto 4 mins by spectrophotometric analysis; type: tissue-based; settings: time 5.0 min
[5] = Solubility of the compound at >30 uM; type: physicochemical
Rattus norvegicus [6] = species on record: Rattus norvegicus; assay: Inhibition of ALR2 in Wistar rat lens assessed as reduction in NADPH consumption at 30 uM using D,L-glyceraldehyde and NADPH as substrate preincubated for 1 mins followed by substrate addition and measured upto 4 mins by spectrophotometric analysis; type: tissue-based; settings: time 5.0 min
in vitro [7] = settings: dog, MDCK
Description: Apparent permeability of the compound across apical side to basolateral side in dog MDCK-II cells incubated for 150 mins by LC-MS/MS analysis

in vitro [8] = settings: dog, MDCK; remark: listed apart in the source
Description: Efflux ratio of apparent permeability in dog MDCK-II cells

in vitro [9] = settings: dog, MDCK; remark: listed apart in the source
Description: Apparent permeability of the compound across basolateral side to apical side in dog MDCK-II cells incubated for 150 mins by LC-MS/MS analysis

physchem [10] = settings: n-octanol/PBS buffer, pH 7.4
physchem [11] = settings: PBS buffer, pH 7.4
in vitro [12] = settings: human, Caco-2
Description: Apparent permeability of the compound across basolateral side to apical side in human Caco-2 cells incubated for 150 mins by LC-MS/MS analysis

in vitro [13] = settings: human, Caco-2; remark: listed apart in the source
Description: Efflux ratio of apparent permeability in human Caco-2 cells

in vitro [14] = settings: human, Caco-2; remark: listed apart in the source
Description: Apparent permeability of the compound across apical side to basolateral side in human Caco-2 cells incubated for 150 mins by LC-MS/MS analysis

Rattus norvegicus [15] = species on record: Rattus norvegicus; assay: Inhibition of ALR2 in Wistar rat lens assessed as reduction in NADPH consumption at 50 uM using D,L-glyceraldehyde and NADPH as substrate preincubated for 1 mins followed by substrate addition and measured upto 4 mins by spectrophotometric analysis; type: tissue-based; settings: time 5.0 min

O=C(CN1C(=O)S/C(=C\c2cccc(O)c2)C1=O)NCc1ccccc1
Ratio IC50 (Rattus norvegicus [1]): 8.6 | IC50 [2]: 28 µM | IC50 ([3]; read-out: IC50): 3.25 µM

CCN(CC)C(=O)CN1C(=O)S/C(=C\c2ccccc2)C1=O
inhibition (Rattus norvegicus [4]): 16.8% | solubility [5]: Insoluble | IC50 ([3]; read-out: IC50): 23.5 µM

C#CCOc1ccc(/C=C2\SC(=O)N(CC(=O)NCc3ccccc3)C2=O)cc1
inhibition (Rattus norvegicus [4]): 30.1% | IC50 [3]: Nd(Insoluble)

COc1ccc(/C=C2\SC(=O)N(CC(=O)Nc3ccccc3)C2=O)cc1O
inhibition (Rattus norvegicus [4]): 29.9% | IC50 [3]: Nd(Insoluble)

CCN(CC)C(=O)CN1C(=O)S/C(=C\c2ccc(OC)cc2)C1=O
inhibition (Rattus norvegicus [6]): 19.5% | solubility [5]: Insoluble

CC(/C=C1\SC(=S)N(CC(=O)O)C1=O)=C\c1ccccc1
IC50 ([3]; read-out: IC50): 0.227 µM

CCN(CC)C(=O)CN1C(=O)S/C(=C\c2cccc(O)c2)C1=O
inhibition (Rattus norvegicus [6]): 0% | solubility [5]: Insoluble

CCN(CC)C(=O)CN1C(=O)S/C(=C\c2cccc(Cl)c2)C1=O
inhibition (Rattus norvegicus [6]): 0% | solubility [5]: Insoluble

C=C[C@H]1C[N@@]2CC[C@H]1C[C@@H]2[C@@H](O)c1ccnc2ccc(OC)cc12 [QUINIDINE]
Papp A→B at 2.5 h (in vitro [7]): 32.7 nm/s | efflux ratio (in vitro [8]): 6.6 | Papp B→A at 2.5 h (in vitro [9]): 214 nm/s

O=C(CN1C(=O)S/C(=C\c2ccc(O)cc2)C1=O)Nc1ccccc1Cl
logD (physchem [10]): 3.68 | IC50 [2]: 13.5 µM | solubility at 2 h, 200 µM (physchem [11]): 5.24 µM (≈ 2.04 µg/mL) | IC50 ([3]; read-out: IC50): 0.95 µM

CCc1ccc(/C=C2\SC(=O)N(CC(=O)N(CC)CC)C2=O)cc1
inhibition (Rattus norvegicus [6]): 5.05% | solubility [5]: Insoluble

CCN(CC)C(=O)CN1C(=O)S/C(=C\c2ccc(Cl)cc2)C1=O
inhibition (Rattus norvegicus [6]): 14% | solubility [5]: Insoluble

COCCc1ccc(OCC(O)CNC(C)C)cc1 (centres undefined) [METOPROLOL]
logD (physchem [10]): 0.05

O=C(CN1C(=O)S/C(=C\c2ccccc2)C1=O)NCCc1ccccc1
inhibition (Rattus norvegicus [4]): 13.2% | solubility [5]: Insoluble

O=C(CN1C(=O)S/C(=C\c2ccc(OCc3ccc(Cl)cc3Cl)cc2)C1=O)NCc1ccccc1
inhibition (Rattus norvegicus [4]): 11.9% | IC50 [3]: Nd(Insoluble)

NC(=O)N1c2ccccc2C=Cc2ccccc21 [CARBAMAZEPINE]
Papp B→A at 2.5 h (in vitro [12]): 248 nm/s | efflux ratio (in vitro [13]): 0.9 | Papp A→B at 2.5 h (in vitro [14]): 262 nm/s

O=c1[nH]c2ccccc2n1CCCN1CCC(n2c(=O)[nH]c3cc(Cl)ccc32)CC1 [DOMPERIDONE]
Papp B→A at 2.5 h (in vitro [12]): 308 nm/s | efflux ratio (in vitro [13]): 12.2 | Papp A→B at 2.5 h (in vitro [14]): 25 nm/s

CCN(CC)C(=O)CN1C(=O)S/C(=C\c2ccc(C)cc2)C1=O
inhibition (Rattus norvegicus [6]): 20.2% | solubility [5]: Insoluble

COc1ccc(NC(=O)CN2C(=O)S/C(=C\c3ccc(O)cc3)C2=O)cc1
Ratio IC50 (Rattus norvegicus [1]): 3.2 | IC50 [2]: 5.3 µM | IC50 ([3]; read-out: IC50): 1.65 µM

CCN(CC)C(=O)CN1C(=O)S/C(=C/c2ccc(OC)c(OC)c2)C1=O
inhibition (Rattus norvegicus [15]): 81.8% | IC50 ([3]; read-out: IC50): 22.4 µM

O=C(CN1C(=O)S/C(=C\c2ccc(O)cc2)C1=O)Nc1ccccc1
Ratio IC50 (Rattus norvegicus [1]): 1.3 | IC50 [2]: 3.91 µM | IC50 ([3]; read-out: IC50): 2.93 µM

CCCCNC(=O)CN1C(=O)S/C(=C\c2ccc(Cl)cc2)C1=O
inhibition (Rattus norvegicus [4]): 6.53% | solubility [5]: Insoluble

C[C@H]1O[C@@H](O[C@H]2[C@@H](O)C[C@H](O[C@H]3[C@@H](O)C[C@H](O[C@H]4CC[C@@]5(C)[C@H](CC[C@@H]6[C@@H]5C[C@@H](O)[C@]5(C)[C@@H](C7=CC(=O)OC7)CC[C@]65O)C4)O[C@@H]3C)O[C@@H]2C)C[C@H](O)[C@@H]1O [DIGOXIN]
Papp A→B at 2.5 h (in vitro [7]): 1.9 nm/s | efflux ratio (in vitro [8]): 30.3 | Papp B→A at 2.5 h (in vitro [9]): 56.6 nm/s

COc1ccc(NC(=O)CN2C(=O)S/C(=C\c3ccccc3)C2=O)cc1
inhibition (Rattus norvegicus [4]): 29.2% | solubility [5]: Insoluble

CCN(CC)C(=O)CN1C(=O)S/C(=C\c2ccc(OC)c(O)c2)C1=O
inhibition (Rattus norvegicus [15]): 31.6%

O=C(CN1C(=O)S/C(=C\c2ccc(OCc3ccc(Cl)cc3Cl)cc2)C1=O)Nc1ccccc1
inhibition (Rattus norvegicus [4]): 21.8% | IC50 [3]: Nd(Insoluble)

CCN(CC)C(=O)CN1C(=O)S/C(=C\c2cccc(OC)c2)C1=O
inhibition (Rattus norvegicus [6]): 15% | solubility [5]: Insoluble

O=C(CN1C(=O)S/C(=C\c2ccc(O)cc2)C1=O)NCc1ccccc1
IC50 ([3]; read-out: IC50): 19.8 µM

C#CCOc1ccc(/C=C2\SC(=O)N(CC(=O)Nc3ccccc3)C2=O)cc1
inhibition (Rattus norvegicus [4]): 8.83% | IC50 [3]: Nd(Insoluble)

COc1ccc(/C=C2\SC(=O)N(CC(=O)NCc3ccccc3)C2=O)cc1O
IC50 ([3]; read-out: IC50): 10.9 µM

CCN(CC)C(=O)CN1C(=O)S/C(=C\c2ccc(O)c(OC)c2)C1=O
inhibition (Rattus norvegicus [15]): 48% | IC50 ([3]; read-out: IC50): 56 µM

CCc1ccccc1NC(=O)CN1C(=O)S/C(=C\c2ccc(O)cc2)C1=O
Ratio IC50 (Rattus norvegicus [1]): 1.5 | IC50 [2]: 2.85 µM | IC50 ([3]; read-out: IC50): 1.9 µM

COc1cc2nc(N3CCN(C(=O)c4ccco4)CC3)nc(N)c2cc1OC [PRAZOSIN]
Papp A→B at 2.5 h (in vitro [7]): 68.5 nm/s | efflux ratio (in vitro [8]): 1.9 | Papp B→A at 2.5 h (in vitro [9]): 130 nm/s

CCCCNC(=O)CN1C(=O)S/C(=C\c2ccc(O)cc2)C1=O
Ratio IC50 (Rattus norvegicus [1]): 8.5 | IC50 [2]: 48.5 µM | solubility [5]: Insoluble | IC50 ([3]; read-out: IC50): 5.68 µM

Cc1ncc2n1-c1ccc(Cl)cc1C(c1ccccc1F)=NC2 [MIDAZOLAM]
logD (physchem [10]): 3.28

CC/C(=C(/CC)c1ccc(O)cc1)c1ccc(O)cc1 [DIETHYLSTILBESTROL]
solubility at 2 h, 200 µM (physchem [11]): 11.9 µM (≈ 3.21 µg/mL)

O=C(CN1C(=O)S/C(=C\c2ccc(O)cc2)C1=O)Nc1ccc(F)cc1
Ratio IC50 (Rattus norvegicus [1]): 5.4 | IC50 [2]: 8.06 µM | IC50 ([3]; read-out: IC50): 1.47 µM

O=C(CCCN1CCC(O)(c2ccc(Cl)cc2)CC1)c1ccc(F)cc1 [HALOPERIDOL]
solubility at 2 h, 200 µM (physchem [11]): 73.3 µM (≈ 27.6 µg/mL)

CCN(CC)C(=O)CN1C(=O)S/C(=C\c2cccs2)C1=O
inhibition (Rattus norvegicus [6]): 6.22% | solubility [5]: Insoluble

CCOc1ccc(NC(=O)CN2C(=O)S/C(=C\c3ccc(OC)c(O)c3)C2=O)cc1
inhibition (Rattus norvegicus [4]): 25.3% | IC50 [3]: Nd(Insoluble)

CN(C)CCC=C1c2ccccc2CCc2ccccc21 [AMITRIPTYLINE]
logD (physchem [10]): 2.85

O=C(CN1C(=O)S/C(=C\c2ccccc2)C1=O)NC1CC1
inhibition (Rattus norvegicus [4]): 2.85% | solubility [5]: Insoluble

CCCCNC(=O)CN1C(=O)S/C(=C\c2ccc(OC)cc2)C1=O
Ratio IC50 (Rattus norvegicus [1]): 0.8 | IC50 [2]: 17 µM | solubility [5]: Insoluble | IC50 ([3]; read-out: IC50): 20.3 µM

CCN(CC)C(=O)CN1C(=O)S/C(=C\c2ccc(O)cc2)C1=O
inhibition (Rattus norvegicus [4]): 77.7% | Ratio IC50 (Rattus norvegicus [1]): 9.4 | IC50 [2]: 12.5 µM | solubility [5]: Insoluble | IC50 ([3]; read-out: IC50): 1.33 µM
